According to PMC5078989, “Targeted inhibition of the COP9 signalosome for treatment of cancer” (Nature Communications, 2016):

Test system: panel of cancer cell lines
Assay: Cell viability (CellTiter-Glo) dose-response across cancer cell line panel;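 also: after 72 h compound incubation with CellTiter-Glo ATP readout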
Format: cell-based, human
Conditions: Homo sapiens
Excerpt: Next, we explored the effect of CSN5 inhibition on the viability of cancer cells. To obtain a comprehensive picture, we generated dose–response curves with a CSN5 inhibitor across more than 500 cancer cell lines in a previously described standardized setting[47] (Supplementary Data 1).
A standardized CellTiter-Glo Assay (Promega #G7570) based on the quantification of ATP was applied according to the manufacturer's protocol to measure the amount of viable cells in culture. In brief, cells were seeded into 384-well plates at optimal density for each cell line. After 4 h, compounds were added at different concentrations in growth medium and incubated for another 72 h in a humidifying chamber at 37 °C and 5% CO2. […] EC50 values were calculated from the plot of percentage of inhibition versus inhibitor concentration using the nonlinear regression analysis software Origin 7.5SR6 (OriginLab Corp.).

COCc1ccccc1NCc1ccc([C@@H]2[C@H](O)CCCc3cncn32)c(-c2ccccc2Cl)c1 [CSN5i-2e, (5R,6R)-5-(2′-chloro-5-(((2-(methoxymethyl)phenyl)amino)methyl)-[1,1′-biphenyl]-2-yl)-6,7,8,9-tetrahydro-5H-imidazo[1,5-a]azepin-6-ol]
EC50 (HCC-1833 cells): 10.6 µM
EC50 (HCT-15, HCT-15 cells): 6.96 µM
EC50 (HD-MY-Z cells): 3.49 µM
EC50 (HEC-50B, HEC-50B cells): 13 µM
EC50 (HEC-108 cells): 14.7 µM
EC50 (HEC-151 cells): 11.1 µM
EC50 (HEC-265 cells): 14.2 µM
EC50 (HEL 92.1.7, HEL 92.1.7 cells): 7.27 µM
EC50 (HEL, HEL cells): 6.98 µM
EC50 (HEY A8, Hey-A8 cells): 12.9 µM
EC50 (HL-60, HL-60 cells): 15.7 µM
EC50 (HLC-1 cells): 11.5 µM
EC50 (HLE, HLE cells): 15.5 µM
EC50 (HLF, HLF cells): > 30 µM
EC50 (HMC-1-8 cells): 15.3 µM
EC50 (HPBALL, HPB-ALL cells): 14.1 µM
EC50 (HRT-18, HRT-18 cells): 9.14 µM
EC50 (HSC-2, HSC-2 cells): 23.9 µM
EC50 (HSC-3, HSC-3 cells): 12.7 µM
EC50 (HSC-4, HSC-4 cells): 10 µM
EC50 (HT-29, HT-29 cells): 12.4 µM
EC50 (Hep 3B2.1-7 cells): 11.1 µM
EC50 (Hep3B, Hep3B cells): 14.2 µM
EC50 (Hs 294T, Hs 294T cells): 11.7 µM
EC50 (Hs766T, Hs 766T cells): 24.2 µM
EC50 (Hs 852.T cells): 15.4 µM
EC50 (Hs 936.T cells): 17.2 µM
EC50 (Hs 944.T cells): 15.3 µM
EC50 (HuG1-N cells): 10.6 µM
EC50 (HuP-T3, HUP-T3 cells): 23.8 µM
EC50 (HuP-T4, HUP-T4 cells): 11 µM
EC50 (Huh-7, HuH-7 cells): 9.02 µM
EC50 (IGR-37, IGR-37 cells): 17.6 µM
EC50 (IGR-39, IGR-39 cells): 10.6 µM
EC50 (IGROV-1, IGROV1 cells): 12.3 µM
EC50 (IPC-298, IPC-298 cells): 10.3 µM
EC50 (Ishikawa, Ishikawa cells): 9.64 µM
EC50 (J82, J82 cells): > 30 µM
EC50 (JHH7, JHH-7 cells): 16.4 µM
EC50 (JHH-4, JHH-4 cells): 16.2 µM
EC50 (JHOM-1 cells): 8.92 µM
EC50 (JHOS-2 cells): > 30 µM
EC50 (JHUEM-2 cells): 15.3 µM
EC50 (JIMT-1, JIMT-1 cells): 13.1 µM
EC50 (JVM-2, JVM-2 cells): 13 µM
EC50 (K029AX cells): 17 µM
EC50 (KARPAS-422, KARPAS-422 cells): 12.5 µM
EC50 (KATO III, KATO III cells): 9.94 µM
EC50 (KBM-7, KBM-7 cells): 8.38 µM
EC50 (KE-97, KE-97 cells): 7.93 µM
EC50 (KLE, KLE cells): 12.6 µM
EC50 (KMM-1, KMM-1 cells): 10.6 µM
EC50 (KMRC-1, KMRC-1 cells): 17.7 µM
EC50 (KMRC-20 cells): 18.5 µM
EC50 (KMS-11, KMS-11 cells): 28.6 µM
EC50 (KNS-62, KNS-62 cells): 15.4 µM
EC50 (KO52 cells): 18.3 µM
EC50 (KP-1N cells): 15 µM
EC50 (KS-1 cells): 15.6 µM
EC50 (KU-19-19, KU-19-19 cells): 16 µM
EC50 (KURAMOCHI cells): 10.6 µM
EC50 (KYSE-70, KYSE-70 cells): 10.4 µM
EC50 (KYSE-150, KYSE-150 cells): 10.7 µM
EC50 (KYSE-180, KYSE-180 cells): 14.1 µM
EC50 (KYSE-410, KYSE-410 cells): 15 µM
EC50 (Kasumi-3, Kasumi3 cells): 13 µM
EC50 (Kasumi-6 cells): 6.45 µM
EC50 (L3.3 cells): 20.2 µM
EC50 (L-363, L-363 cells): 9.54 µM
EC50 (L-428, L-428 cells): 11.8 µM
EC50 (LC-1F cells): 16.3 µM
EC50 (LCLC-103H, LCLC-103H cells): 8.84 µM
EC50 (LIM1899 cells): 10.3 µM
EC50 (LIM2099 cells): 11.4 µM
EC50 (LIM2405 cells): 9.94 µM
EC50 (LIM2550 cells): 6.3 µM
EC50 (LMSU cells): 7.62 µM
EC50 (LN-18, LN-18 cells): 13 µM
EC50 (LN-229, LN-229 cells): 8.07 µM
EC50 (LOU-NH91, LOU-NH91 cells): 11.2 µM
EC50 (LOX IMVI, LOX IMVI cells): 9.19 µM
EC50 (LP-1, LP-1 cells): 11.9 µM
EC50 (LS180, LS 180 cells): 10.5 µM
EC50 (LS-513, LS513 cells): 8.14 µM
EC50 (LUDLU-1, LUDLU-1 cells): > 30 µM
EC50 (Li-7, Li-7 cells): 23.7 µM
EC50 (Lu-65, LU65 cells): 12.5 µM
EC50 (Lu-99, LU99 cells): 9.78 µM
EC50 (M-07e, M-07e cells): 16 µM
EC50 (MCAS cells): 12.5 µM
EC50 (MCC14/2 cells): 9.96 µM
EC50 (MDA-MB-157, MDA-MB-157 cells): 14.7 µM
EC50 (MDA-MB-175-VII, MDA-MB-175-VII cells): 19.8 µM
EC50 (MDA-MB-231, MDA-MB-231 cells): 15.3 µM
EC50 (MDA-MB-415, MDA-MB-415 cells): 13.4 µM
EC50 (MDA-MB-435S, MDA-MB-435S cells): 12 µM
EC50 (MDA-MB-436, MDA-MB-436 cells): 10.1 µM
EC50 (MDA-MB-453, MDA-MB-453 cells): 6.48 µM
EC50 (MDA-MB-468, MDA-MB-468 cells): 10.7 µM
EC50 (MDST8, MDST8 cells): 11.2 µM
EC50 (ME-180, ME180 cells): 11.9 µM
EC50 (MEL-HO cells): 10.9 µM
EC50 (MEL-JUSO, MEL-JUSO cells): 18.1 µM
EC50 (MES-SA, MES-SA cells): 12.5 µM
EC50 (MFE-280, MFE-280 cells): 10.8 µM
EC50 (MFE-296, MFE-296 cells): 10.5 µM
EC50 (MFM-223, MFM223 cells): 17.2 µM
EC50 (MINO, Mino cells): 7.97 µM
EC50 (MKN-1, MKN1 cells): 9.59 µM
EC50 (MKN-45, MKN-45 cells): 26.8 µM
EC50 (ML-2, ML-2 cells): 6.14 µM
EC50 (MM127 cells): 6.45 µM
EC50 (MM138 cells): 10.4 µM
EC50 (MM253 cells): 26.5 µM
EC50 (MM370 cells): 23 µM
EC50 (MM383 cells): 11.2 µM
EC50 (MM386 cells): 25.5 µM
EC50 (MM415 cells): 13.3 µM
EC50 (MM426 cells): 24.4 µM
EC50 (MM466 cells): 24.5 µM
EC50 (MM473, MM473 cells): 10.4 µM
EC50 (MM485 cells): 11.2 µM
EC50 (MM537 cells): 14 µM
EC50 (MM576 cells): 15.8 µM
EC50 (MM603 cells): 9.82 µM
EC50 (MOG-G-CCM cells): 10.9 µM
EC50 (MOLM-13, MOLM-13 cells): 6.66 µM
EC50 (MOLP-8, MOLP-8 cells): 6.91 µM
EC50 (MOLT-16, MOLT-16 cells): 5.34 µM
